# From ChEMBL document CHEMBL3885881, “DrugMatrix”
# Species on record: Rattus norvegicus
# Assay: DrugMatrix - Regimen: Daily Repeat
# Format: toxicity, organism-based, Sprague-Dawley
# Parameters: regimen Daily Repeat, gender Male, age 6-8 weeks
# Details: in vivo, po, route oral GAVAGE, vehicle .5 % CMC; for ABSOLUTE BASOPHIL / ABSOLUTE EOSINOPHIL / ABSOLUTE LYMPHOCYTE / ABSOLUTE MONOCYTE / ABSOLUTE SEGMENTED NEUTROPHIL / BASOPHIL / EOSINOPHIL / ERYTHROCYTE COUNT / HEMATOCRIT / HEMOGLOBIN / LEUKOCYTE COUNT / LYMPHOCYTE / MEAN CORPUSCULAR HEMOGLOBIN / MEAN CORPUSCULAR HEMOGLOBIN CONCENTRATION / MEAN CORPUSCULAR VOLUME / MONOCYTE / NEUTROPHIL / NUCLEATED RED BLOOD CELLS / PLATELET COUNT: tissue Blood; for ALANINE AMINOTRANSFERASE / ALBUMIN / ALKALINE PHOSPHATASE / ASPARTATE AMINOTRANSFERASE / BLOOD UREA NITROGEN / CARBON DIOXIDE / CHLORIDE / CHOLESTEROL / CREATINE PHOSPHOKINASE / CREATININE / GLUCOSE / LACTATE DEHYDROGENASE / LIPASE / PHOSPHORUS / POTASSIUM / SODIUM / TOTAL BILIRUBIN / TOTAL PROTEIN / URIC ACID: tissue Plasma
# [1] = 0.006 mg/kg, 72 h, dose level Low, time 3 day
# [2] = 0.006 mg/kg, 120 h, dose level Low, time 5 day
# [3] = 0.04 mg/kg, 72 h, dose level High, time 3 day
# [4] = 0.04 mg/kg, 120 h, dose level High, time 5 day
compound,measurement,setting,value
C=C1/C(=C\C=C2/CCC[C@]3(C)[C@@H]([C@H](C)CCCC(C)(C)O)CC[C@@H]23)C[C@@H](O)C[C@@H]1O [CALCITRIOL],ABSOLUTE BASOPHIL,[1],0 CELLS/uL
same,ABSOLUTE EOSINOPHIL,[1],45.67 CELLS/uL
same,ABSOLUTE LYMPHOCYTE,[1],10032.33 CELLS/uL
same,ABSOLUTE MONOCYTE,[1],329.67 CELLS/uL
same,ABSOLUTE SEGMENTED NEUTROPHIL,[1],1592.33 CELLS/uL
same,BASOPHIL,[1],0%
same,EOSINOPHIL,[1],0.33%
same,ERYTHROCYTE COUNT,[1],5.61 x10E6/uL
same,HEMATOCRIT,[1],34.07%
same,HEMOGLOBIN,[1],13.17 G/DL
same,LEUKOCYTE COUNT,[1],12 x10E3/uL
same,LYMPHOCYTE,[1],84%
same,MEAN CORPUSCULAR HEMOGLOBIN,[1],23.57 pg
same,MEAN CORPUSCULAR HEMOGLOBIN CONCENTRATION,[1],38.7 G/DL
same,MEAN CORPUSCULAR VOLUME,[1],60.93 fL
same,MONOCYTE,[1],2.67%
same,NEUTROPHIL,[1],13%
same,NUCLEATED RED BLOOD CELLS,[1],0 /100WBC
same,PLATELET COUNT,[1],1046.67 x10E3/uL
same,ALANINE AMINOTRANSFERASE,[1],66.67 u/L
same,ALBUMIN,[1],3.93 G/DL
same,ALKALINE PHOSPHATASE,[1],358 u/L
same,ASPARTATE AMINOTRANSFERASE,[1],93.67 u/L
same,BLOOD UREA NITROGEN,[1],17 mg/dL
same,CARBON DIOXIDE,[1],25.33 mmol/L
same,CHLORIDE,[1],101.33 MEQ/L
same,CHOLESTEROL,[1],73 mg/dL
same,CREATINE PHOSPHOKINASE,[1],357 u/L
same,CREATININE,[1],0.21 mg/dL
same,GLUCOSE,[1],146.67 mg/dL
same,LACTATE DEHYDROGENASE,[1],503.33 u/L
same,LIPASE,[1],11 u/L
same,PHOSPHORUS,[1],13.67 mg/dL
same,POTASSIUM,[1],6.19 MEQ/L
same,SODIUM,[1],143.5 MEQ/L
same,TOTAL BILIRUBIN,[1],0.17 mg/dL
same,TOTAL PROTEIN,[1],5.8 G/DL
same,URIC ACID,[1],1.47 mg/dL
same,ABSOLUTE BASOPHIL,[2],0 CELLS/uL
same,ABSOLUTE EOSINOPHIL,[2],0 CELLS/uL
same,ABSOLUTE LYMPHOCYTE,[2],11413 CELLS/uL
same,ABSOLUTE MONOCYTE,[2],402.33 CELLS/uL
same,ABSOLUTE SEGMENTED NEUTROPHIL,[2],1784.67 CELLS/uL
same,BASOPHIL,[2],0%
same,EOSINOPHIL,[2],0%
same,ERYTHROCYTE COUNT,[2],5.87 x10E6/uL
same,HEMATOCRIT,[2],34.33%
same,HEMOGLOBIN,[2],13.57 G/DL
same,LEUKOCYTE COUNT,[2],13.6 x10E3/uL
same,LYMPHOCYTE,[2],84%
same,MEAN CORPUSCULAR HEMOGLOBIN,[2],23.17 pg
same,MEAN CORPUSCULAR HEMOGLOBIN CONCENTRATION,[2],39.53 G/DL
same,MEAN CORPUSCULAR VOLUME,[2],58.53 fL
same,MONOCYTE,[2],3%
same,NEUTROPHIL,[2],13%
same,NUCLEATED RED BLOOD CELLS,[2],0 /100WBC
same,PLATELET COUNT,[2],1088.67 x10E3/uL
same,ALANINE AMINOTRANSFERASE,[2],57.33 u/L
same,ALBUMIN,[2],4.37 G/DL
same,ALKALINE PHOSPHATASE,[2],445.33 u/L
same,ASPARTATE AMINOTRANSFERASE,[2],99.67 u/L
same,BLOOD UREA NITROGEN,[2],19 mg/dL
same,CARBON DIOXIDE,[2],31.33 mmol/L
same,CHLORIDE,[2],95.33 MEQ/L
same,CHOLESTEROL,[2],61 mg/dL
same,CREATINE PHOSPHOKINASE,[2],435 u/L
same,CREATININE,[2],0.17 mg/dL
same,GLUCOSE,[2],145 mg/dL
same,LACTATE DEHYDROGENASE,[2],606.67 u/L
same,LIPASE,[2],10.33 u/L
same,PHOSPHORUS,[2],11.6 mg/dL
same,POTASSIUM,[2],5.78 MEQ/L
same,SODIUM,[2],141.37 MEQ/L
same,TOTAL BILIRUBIN,[2],0.13 mg/dL
same,TOTAL PROTEIN,[2],6.37 G/DL
same,URIC ACID,[2],1.6 mg/dL
same,ABSOLUTE BASOPHIL,[3],0 CELLS/uL
same,ABSOLUTE EOSINOPHIL,[3],117 CELLS/uL
same,ABSOLUTE LYMPHOCYTE,[3],9651 CELLS/uL
same,ABSOLUTE MONOCYTE,[3],117 CELLS/uL
same,ABSOLUTE SEGMENTED NEUTROPHIL,[3],6315 CELLS/uL
same,BASOPHIL,[3],0%
same,EOSINOPHIL,[3],0.67%
same,ERYTHROCYTE COUNT,[3],6 x10E6/uL
same,HEMATOCRIT,[3],37.07%
same,HEMOGLOBIN,[3],14.33 G/DL
same,LEUKOCYTE COUNT,[3],16.2 x10E3/uL
same,LYMPHOCYTE,[3],57.67%
same,MEAN CORPUSCULAR HEMOGLOBIN,[3],23.93 pg
same,MEAN CORPUSCULAR HEMOGLOBIN CONCENTRATION,[3],38.67 G/DL
same,MEAN CORPUSCULAR VOLUME,[3],62 fL
same,MONOCYTE,[3],0.67%
same,NEUTROPHIL,[3],41%
same,NUCLEATED RED BLOOD CELLS,[3],0 /100WBC
same,PLATELET COUNT,[3],1193.33 x10E3/uL
same,ALANINE AMINOTRANSFERASE,[3],118.67 u/L
same,ALBUMIN,[3],3.1 G/DL
same,ALKALINE PHOSPHATASE,[3],333 u/L
same,ASPARTATE AMINOTRANSFERASE,[3],517.33 u/L
same,BLOOD UREA NITROGEN,[3],95 mg/dL
same,CARBON DIOXIDE,[3],24 mmol/L
same,CHLORIDE,[3],100 MEQ/L
same,CHOLESTEROL,[3],98.67 mg/dL
same,CREATINE PHOSPHOKINASE,[3],1977.67 u/L
same,CREATININE,[3],1.67 mg/dL
same,GLUCOSE,[3],129.67 mg/dL
same,LACTATE DEHYDROGENASE,[3],1234.67 u/L
same,LIPASE,[3],10 u/L
same,PHOSPHORUS,[3],17.23 mg/dL
same,POTASSIUM,[3],5.62 MEQ/L
same,SODIUM,[3],140.85 MEQ/L
same,TOTAL BILIRUBIN,[3],0.2 mg/dL
same,TOTAL PROTEIN,[3],5.9 G/DL
same,URIC ACID,[3],1.93 mg/dL
same,ABSOLUTE BASOPHIL,[4],0 CELLS/uL
same,ABSOLUTE EOSINOPHIL,[4],37.4 CELLS/uL
same,ABSOLUTE LYMPHOCYTE,[4],15678.4 CELLS/uL
same,ABSOLUTE MONOCYTE,[4],350.8 CELLS/uL
same,ABSOLUTE SEGMENTED NEUTROPHIL,[4],1413.4 CELLS/uL
same,BASOPHIL,[4],0%
same,EOSINOPHIL,[4],0.2%
same,ERYTHROCYTE COUNT,[4],6.14 x10E6/uL
same,HEMATOCRIT,[4],35.74%
same,HEMOGLOBIN,[4],13.9 G/DL
same,LEUKOCYTE COUNT,[4],17.48 x10E3/uL
same,LYMPHOCYTE,[4],89.8%
same,MEAN CORPUSCULAR HEMOGLOBIN,[4],22.62 pg
same,MEAN CORPUSCULAR HEMOGLOBIN CONCENTRATION,[4],38.88 G/DL
same,MEAN CORPUSCULAR VOLUME,[4],58.22 fL
same,MONOCYTE,[4],2%
same,NEUTROPHIL,[4],8%
same,NUCLEATED RED BLOOD CELLS,[4],0.2 /100WBC
same,PLATELET COUNT,[4],1031.8 x10E3/uL
same,ALANINE AMINOTRANSFERASE,[4],34.8 u/L
same,ALBUMIN,[4],3.62 G/DL
same,ALKALINE PHOSPHATASE,[4],233.8 u/L
same,ASPARTATE AMINOTRANSFERASE,[4],68.4 u/L
same,BLOOD UREA NITROGEN,[4],19.4 mg/dL
same,CARBON DIOXIDE,[4],30.2 mmol/L
same,CHLORIDE,[4],98.6 MEQ/L
same,CHOLESTEROL,[4],99.6 mg/dL
same,CREATINE PHOSPHOKINASE,[4],347.4 u/L
same,CREATININE,[4],0.2 mg/dL
same,GLUCOSE,[4],143.4 mg/dL
same,LACTATE DEHYDROGENASE,[4],272.4 u/L
same,LIPASE,[4],9.2 u/L
same,PHOSPHORUS,[4],10.48 mg/dL
same,POTASSIUM,[4],5.5 MEQ/L
same,SODIUM,[4],142.72 MEQ/L
same,TOTAL BILIRUBIN,[4],0.1 mg/dL
same,TOTAL PROTEIN,[4],5.84 G/DL
same,URIC ACID,[4],1.34 mg/dL
